Experimental data as given in patent US11180657B2, “Polysulfonated fluorescence dyes” (ATTO-TEC GmbH, priority 2017, dated 2021).
Marks after values point to notes of the source that are not given here.

Experiments:
Format in all cases: physicochemical
[1] = target: T1, streptavidin (Streptomyces avidinii, UniProt P22629); experiment: Fluorescence quantum yield of the dye after coupling to streptavidin, relative to the uncoupled dye; conditions: streptavidin conjugate
T1 construct: purchased IBA
Description: The average number of dye molecules per biomolecule is expressed by the “degree of labeling” (DOL). […] Since the dye also absorbs in UV, the (total) absorption measured there must still be corrected with the absorption of the dye at this wavelength in order to obtain the actual biomolecule absorption. For this purpose, with commercial dyes, so-called CF values (correction factor values) are given, which describe the ratio of absorptions of the dye at the longwave maximum and at 260 nm or 280 nm.
From the thus obtained (individual) absorptions of dye and biomolecule in the conjugate, taking into consideration the two extinction coefficients, the quotient is formed, which directly indicates the molecular concentration ratio and thus the mean number of dye molecules per biomolecule (“degree of labeling,” DOL).
The compounds listed in Table 1 belong to the class of rhodamines with the same chromophore system. In an aqueous solution at room temperature they all have a comparably high fluorescence quantum yield of about 90%. […] Thus with established marking procedures, a much better detection reliability is achieved.
2 mg of streptavidin (IBA, content approx. 75%) are dissolved under cautious swirling in a glass vial with 1 ml of PBS buffer (pH 7.4) and 50 μl of a 0.2 M sodium hydrogen carbonate solution, which is set to a pH of 9 with sodium hydroxide. The clear solution has a pH-value of 8.3.
40.5 μl of a solution of 170 μg of compound 7 in 50 μl of dry DMSO are added; this corresponds to a dye-streptavidin ratio of 4:1.
The reaction solution is kept for two hours at room temperature and then kept overnight in the refrigerator at 4° C.
Purification is performed in the usual manner over superfine Sephadex G25 (column length 40 cm, diameter 2.5 cm) with PBS buffer as the eluent. The first colored zone contains the streptavidin conjugate.
The DOL can be calculated from the absorption spectrum of the conjugate fraction by the known procedure.

[2] = Lactone or pseudobase formation in aqueous weakly alkaline solution; conditions: aqueous weakly alkaline solutions; reversible
Description: Normally such lactones are adequately stabilized only in aprotic solvents such as acetone or chloroform. In protic solvents the carboxyl group is deprotonated and a slightly more short-wave absorbing and fluorescent zwitterion is formed. In the exemplary compounds, however, colorless compounds are formed due to the strong electron attraction of the indicated substituents, due to internal ester formation and the associated interruption of the conjugated system. If the carboxyl group is not free but is present as an ester or tertiary amide, so-called pseudobases are formed, through nucleophilic attack (hydroxide ions etc.) at the central carbon atom, which is stronger positivized by the electron-attracting substituents, which pseudobases are likewise colorless due to the interruption of the conjugated system. Both reactions are reversible; by changing the pH value, the dielectric constant (“polarity”) and/or the capability of hydrogen bridge bonding (“proticity”), the dye can be restored. Therefore such compounds can in principle be used as probes for the properties of their direct environment: Depending on the milieu, the molecules are present in colorless or colored form. Associated therewith is also a sort of fluorogenicity, because the longwave fluorescence appears only in the dye form.

[3] = Absorption maximum of the dye
Description: (§1) Examples of the compounds according to the invention are listed in Tables 2-6, where the structures as well as the absorption and fluorescence maxima are indicated. The spectra of selected compounds are shown FIGS. 5-18.

[4] = Fluorescence maximum of the dye; conditions: solvent PBS pH 7.4
Description: as §1

T1 sequence (P22629 38-163 limits assumed): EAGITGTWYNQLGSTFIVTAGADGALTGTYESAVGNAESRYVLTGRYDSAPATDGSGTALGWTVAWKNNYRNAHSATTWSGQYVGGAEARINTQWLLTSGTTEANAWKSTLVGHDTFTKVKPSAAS

Row | Structure (SMILES) | Fluorescence quantum yield of the dye following coupling to streptavidin in comparison with the uncoupled dye ([1]; DOL 3.0, PBS-buffer 25° C.) [%] | formation of colorless lactone or pseudobase [2] | λabs ([3]; solvent water/acetonitrile 1:1) | λfl [4] | Fluorescence quantum yield of the dye following coupling to streptavidin in comparison with the uncoupled dye ([1]; DOL 5.6, PBS-buffer 25° C.) [%] | Fluorescence quantum yield of the dye following coupling to streptavidin in comparison with the uncoupled dye ([1]; DOL 2.8, PBS-buffer 25° C.) [%] | Fluorescence quantum yield of the dye following coupling to streptavidin in comparison with the uncoupled dye ([1]; DOL 6.7, PBS-buffer 25° C.) [%] | λabs ([3]; solvent PBS pH 7.4)
1 | CN(CCCC(=O)NCCCCCC(=O)O)C(=O)c1ccccc1-c1c2cc(S(=O)(=O)O)/c(=N/Cc3ccc(S(=O)(=O)O)cc3S(=O)(=O)O)cc-2oc2cc(NCc3ccc(S(=O)(=O)O)cc3S(=O)(=O)O)c(S(=O)(=O)O)cc12 [Compound 12] | 27 | easily form a lactone or pseudobase | 536^c nm | 555^b nm | – | – | – | –
2 | CN(CCCC(=O)O)C(=O)c1ccccc1-c1c2cc(S(=O)(=O)O)/c(=N/CCc3ccc(S(=O)(=O)O)cc3)cc-2oc2cc(NCCc3ccc(S(=O)(=O)O)cc3)c(S(=O)(=O)O)cc12 [Compound 19] | – | easily form a lactone or pseudobase | 537^c nm | 560^b nm | 10 | – | – | –
3 | CN(CCCC(=O)O)C(=O)c1ccccc1-c1c2cc(S(=O)(=O)O)/c(=N/CCc3ccc(S(=O)(=O)O)cc3S(=O)(=O)O)cc-2oc2cc(NCCc3ccc(S(=O)(=O)O)cc3S(=O)(=O)O)c(S(=O)(=O)O)cc12 [Compound 25] | – | easily form a lactone or pseudobase | – | 560^b nm | – | 45 | 35 | 539^b nm
